Test results taken from patent EP4230621A1, “SUBSTITUTED N-BENZOIC ACID URACILS, THEIR SALTS AND USE OF SAID COMPOUNDS AS HERBICIDAL AGENTS” (Bayer AG, priority 2022, dated 2023).

Columns and labels:
Format in all cases: in vivo
[1] = test system: Setaria viridis; experiment: Post-emergence herbicidal action against SETVI (greenhouse pot test)
From the text: (§1) Die folgenden Abkürzungen werden für die in den folgenden Tabellen aufgeführten Kultur- und Schadpflanzen verwendet: ABUTH: Abutilon theophrasti ALOMY: Alopecurus myosuroides AMARE: Amaranthus retroflexus BRSNS: Brassica napus DIGSA: Digitaria sanguinalis ECHCG: Echinochloa crus-galli GLXMA: Glycine max KCHSC: Kochia scoparia LOLRI: Lolium rigidum MATIN: Matricaria inodora ORYZA: Oryza sativa PHPBU: Pharbitis purpurea POLCO: Polygonum convolvulus SETVI: Setaria viridis VERPE: Veronica persica VIOTR: Viola tricolor TRZAS: Triticum aestivum ZEAMX: Zea mays
(§2) Samen von mono- bzw. dikotylen Unkrautpflanzen wurden in Kunststoff- oder Holzfasertöpfen in sandigem Lehmboden ausgelegt, mit Erde abgedeckt und im Gewächshaus unter kontrollierten Wachstumsbedingungen angezogen. 2 bis 3 Wochen nach der Aussaat wurden die Versuchspflanzen im Einblattstadium behandelt. Die in Form von benetzbaren Pulvern (WP) oder als Emulsionskonzentrate (EC) formulierten erfindungsgemäßen Verbindungen wurden dann als wässrige Suspension bzw. Emulsion unter Zusatz von 0,5% Additiv mit einer Wasseraufwandmenge von umgerechnet 600 1/ha auf die grünen Pflanzenteile gesprüht. Nach ca. 3 Wochen Standzeit der Versuchspflanzen im Gewächshaus, unter optimalen Wachstumsbedingungen, wurde die Wirkung der Präparate visuell im Vergleich zu unbehandelten Kontrollen bonitiert. Beispielsweise bedeutet 100% Wirkung = Pflanzen sind abgestorben, 0% Wirkung = wie Kontrollpflanzen.
(§3) In den nachstehenden Tabellen A1 bis A11 sind die Wirkungen ausgewählter Verbindungen der allgemeinen Formel (I) gemäß der Tabelle 1 auf verschiedene Schadpflanzen und einer Aufwandmenge entsprechend 80 g/ha und niedriger, die gemäß zuvor genannter Versuchsvorschrift erhalten wurden, dargestellt. Tabelle A1a: Nachauflaufwirkung bei 5 g/ha gegen ABUTH in %

[2] = test system: Triticum aestivum; experiment: Post-emergence action on crop plants, TRZAS (greenhouse pot test); settings: crop plant
From the text: as §1
as §2, with “Kulturpflanzen” for “Unkrautpflanzen”
(§4) In den nachstehenden Tabellen B1 bis B3 sind die Wirkungen ausgewählter Verbindungen der allgemeinen Formel (I) gemäß der Tabelle 1 auf verschiedene Kulturpflanzen und einer Aufwandmenge entsprechend 20 g/ha und niedriger, die gemäß zuvor genannter Versuchsvorschrift erhalten wurden, dargestellt. Tabelle B1a: Nachauflaufwirkung bei 5 g/ha gegen ZEAMX in %

[3] = test system: Abutilon theophrasti; experiment: Post-emergence herbicidal action against ABUTH (greenhouse pot test); settings: visual rating after ca. 3 weeks vs untreated controls (100% = plants dead, 0% = like controls)
From the text: as §1, §2, §3

[4] = test system: Viola tricolor; experiment: Post-emergence herbicidal action against VIOTR (greenhouse pot test)
From the text: as §1, §2, §3

[5] = test system: Zea mays; experiment: Post-emergence action on crop plants, ZEAMX (greenhouse pot test); settings: 5 g/ha, crop plant
From the text: as §1
as §2, with “Kulturpflanzen” for “Unkrautpflanzen”
as §4

[6] = test system: Amaranthus retroflexus; experiment: Post-emergence herbicidal action against AMARE (greenhouse pot test); settings: visual rating after ca. 3 weeks vs untreated controls (100% = plants dead, 0% = like controls)
From the text: as §1, §2, §3

[7] = test system: Veronica persica; experiment: Post-emergence herbicidal action against VERPE (greenhouse pot test)
From the text: as §1, §2, §3

[8] = test system: Polygonum convolvulus; experiment: Post-emergence herbicidal action against POLCO (greenhouse pot test)
From the text: as §1, §2, §3

[9] = test system: Alopecurus myosuroides; experiment: Post-emergence herbicidal action against ALOMY (greenhouse pot test); settings: visual rating after ca. 3 weeks vs untreated controls (100% = plants dead, 0% = like controls)
From the text: as §1, §2, §3

[10] = test system: Oryza sativa; experiment: Post-emergence action on crop plants, ORYZA (greenhouse pot test); settings: 5 g/ha
From the text: as §1
as §2, with “Kulturpflanzen” for “Unkrautpflanzen”
as §4

[11] = test system: Pharbitis purpurea; experiment: Post-emergence herbicidal action against PHBPU (greenhouse pot test)
From the text: as §1, §2, §3

[12] = test system: Digitaria sanguinalis; experiment: Post-emergence herbicidal action against DIGSA (greenhouse pot test); settings: visual rating after ca. 3 weeks vs untreated controls (100% = plants dead, 0% = like controls)
From the text: as §1, §2, §3

[13] = test system: Lolium rigidum; experiment: Post-emergence herbicidal action against LOLRI (greenhouse pot test); settings: 80 g/ha, visual rating after ca. 3 weeks vs untreated controls (100% = plants dead, 0% = like controls)
From the text: as §1, §2, §3

[14] = test system: Matricaria inodora; experiment: Post-emergence herbicidal action against MATIN (greenhouse pot test); settings: for Nachauflaufwirkung gegen MATIN: visual rating after ca. 3 weeks vs untreated controls (100% = plants dead, 0% = like controls); for Nachauflaufwirkung gegen MATIN in %: 80 g/ha
From the text: as §1, §2, §3

In the case of `CCOCCOC(=O)C(C)(C)OC(=O)c1cc(-n2c(=O)cc(C(F)(F)F)n(C)c2=O)c(F)cc1Cl` [I.1-2], the “Nachauflaufwirkung gegen SETVI in %” value ([1]; 5 g/ha) is reported as 100%, the “Nachauflaufwirkung gegen SETVI in %” value ([1]; 20 g/ha) is reported as 100% and the “Nachauflaufwirkung gegen SETVI in %” value ([1]; 80 g/ha) is reported as 100%. For the same compound, the “Nachauflaufwirkung gegen TRZAS in %” value ([2]; 5 g/ha) was 10%, the “Nachauflaufwirkung gegen TRZAS in %” value ([2]; 20 g/ha) was 20% and the “Nachauflaufwirkung gegen ABUTH” value ([3]; 5 g/ha) was 100%. The “Nachauflaufwirkung gegen ABUTH” value ([3]; 20 g/ha) was 100%, the “Nachauflaufwirkung gegen ABUTH” value ([3]; 80 g/ha) was 100% and the “Nachauflaufwirkung gegen VIOTR in %” value ([4]; 5 g/ha) was 100%. The “Nachauflaufwirkung gegen VIOTR in %” value ([4]; 20 g/ha) was 100%, the “Nachauflaufwirkung gegen VIOTR in %” value ([4]; 80 g/ha) was 100% and the “Nachauflaufwirkung gegen ZEAMX in %” value [5] was 20%. For the same compound, the “Nachauflaufwirkung gegen AMARE” value ([6]; 5 g/ha) was 100%, the “Nachauflaufwirkung gegen AMARE” value ([6]; 20 g/ha) was 100% and the “Nachauflaufwirkung gegen AMARE” value ([6]; 80 g/ha) was 100%. The “Nachauflaufwirkung gegen VERPE in %” value ([7]; 5 g/ha) was 100%, the “Nachauflaufwirkung gegen VERPE in %” value ([7]; 20 g/ha) was 100% and the “Nachauflaufwirkung gegen VERPE in %” value ([7]; 80 g/ha) was 100%. For the same compound, the “Nachauflaufwirkung gegen POLCO in %” value ([8]; 5 g/ha) was 100%, the “Nachauflaufwirkung gegen POLCO in %” value ([8]; 20 g/ha) was 100% and the “Nachauflaufwirkung gegen POLCO in %” value ([8]; 80 g/ha) was 100%. For the same compound, the “Nachauflaufwirkung gegen ALOMY” value ([9]; 20 g/ha) was 90%, the “Nachauflaufwirkung gegen ALOMY” value ([9]; 80 g/ha) was 100% and the “Nachauflaufwirkung gegen ORYZA in %” value [10] was 0%. For the same compound, the “Nachauflaufwirkung gegen PHBPU in %” value ([11]; 5 g/ha) was 100%, the “Nachauflaufwirkung gegen PHBPU in %” value ([11]; 20 g/ha) was 100% and the “Nachauflaufwirkung gegen PHBPU in %” value ([11]; 80 g/ha) was 100%. For the same compound, the “Nachauflaufwirkung gegen DIGSA” value ([12]; 5 g/ha) was 100%, the “Nachauflaufwirkung gegen DIGSA” value ([12]; 20 g/ha) was 100% and the “Nachauflaufwirkung gegen DIGSA” value ([12]; 80 g/ha) was 100%. For the same compound, the “Nachauflaufwirkung gegen LOLRI” value [13] was 100%, the “Nachauflaufwirkung gegen MATIN” value ([14]; 5 g/ha) was 100% and the “Nachauflaufwirkung gegen MATIN” value ([14]; 20 g/ha) was 100%. For the same compound, the “Nachauflaufwirkung gegen MATIN in %” value [14] was 100%.
For `CC(C)=NOC(=O)C(C)(C)OC(=O)c1cc(-n2c(=O)cc(C(F)(F)F)n(C)c2=O)c(F)cc1Cl` [I.1-476], the “Nachauflaufwirkung gegen SETVI in %” value ([1]; 5 g/ha) was 100%, the “Nachauflaufwirkung gegen SETVI in %” value ([1]; 20 g/ha) was 100% and the “Nachauflaufwirkung gegen SETVI in %” value ([1]; 80 g/ha) was 100%. For the same compound, the “Nachauflaufwirkung gegen TRZAS in %” value ([2]; 5 g/ha) was 10%, the “Nachauflaufwirkung gegen TRZAS in %” value ([2]; 20 g/ha) was 10% and the “Nachauflaufwirkung gegen ABUTH” value ([3]; 5 g/ha) was 100%. For the same compound, the “Nachauflaufwirkung gegen ABUTH” value ([3]; 20 g/ha) was 100%, the “Nachauflaufwirkung gegen ABUTH” value ([3]; 80 g/ha) was 100% and the “Nachauflaufwirkung gegen VIOTR in %” value ([4]; 5 g/ha) was 100%. For the same compound, the “Nachauflaufwirkung gegen VIOTR in %” value ([4]; 20 g/ha) was 100%, the “Nachauflaufwirkung gegen VIOTR in %” value ([4]; 80 g/ha) was 100% and the “Nachauflaufwirkung gegen ZEAMX in %” value [5] was 20%. The “Nachauflaufwirkung gegen AMARE” value ([6]; 5 g/ha) was 100%, the “Nachauflaufwirkung gegen AMARE” value ([6]; 20 g/ha) was 100% and the “Nachauflaufwirkung gegen AMARE” value ([6]; 80 g/ha) was 100%. For the same compound, the “Nachauflaufwirkung gegen VERPE in %” value ([7]; 5 g/ha) was 100%, the “Nachauflaufwirkung gegen VERPE in %” value ([7]; 20 g/ha) was 100% and the “Nachauflaufwirkung gegen VERPE in %” value ([7]; 80 g/ha) was 100%. The “Nachauflaufwirkung gegen POLCO in %” value ([8]; 5 g/ha) was 100%, the “Nachauflaufwirkung gegen POLCO in %” value ([8]; 20 g/ha) was 100% and the “Nachauflaufwirkung gegen POLCO in %” value ([8]; 80 g/ha) was 100%. The “Nachauflaufwirkung gegen ALOMY” value ([9]; 20 g/ha) was 100%, the “Nachauflaufwirkung gegen ALOMY” value ([9]; 80 g/ha) was 100% and the “Nachauflaufwirkung gegen PHBPU in %” value ([11]; 5 g/ha) was 100%. The “Nachauflaufwirkung gegen PHBPU in %” value ([11]; 20 g/ha) was 100%, the “Nachauflaufwirkung gegen PHBPU in %” value ([11]; 80 g/ha) was 100% and the “Nachauflaufwirkung gegen DIGSA” value ([12]; 5 g/ha) was 100%. The “Nachauflaufwirkung gegen DIGSA” value ([12]; 20 g/ha) was 100%, the “Nachauflaufwirkung gegen DIGSA” value ([12]; 80 g/ha) was 100% and the “Nachauflaufwirkung gegen LOLRI” value [13] was 100%. For the same compound, the “Nachauflaufwirkung gegen MATIN” value ([14]; 5 g/ha) was 100%, the “Nachauflaufwirkung gegen MATIN” value ([14]; 20 g/ha) was 100% and the “Nachauflaufwirkung gegen MATIN in %” value [14] was 100%.
For `Cn1c(C(F)(F)F)cc(=O)n(-c2cc(C(=O)OC(C)(C)C(=O)OCC#N)c(Cl)cc2F)c1=O` [I.1-176, 1-(Cyanmethoxy)-2-methyl-1-oxopropan-2-yl-2-chlor-4-fluor-5-[3-methyl-2,6-dioxo-4-(trifluormethyl)-3,6-dihydropyrimidin-1(2H)-yl]benzoat], the “Nachauflaufwirkung gegen SETVI in %” value ([1]; 5 g/ha) was 100%, the “Nachauflaufwirkung gegen SETVI in %” value ([1]; 20 g/ha) was 100% and the “Nachauflaufwirkung gegen SETVI in %” value ([1]; 80 g/ha (dose column; title A9c prints 20 g/ha)) was 100%. For the same compound, the “Nachauflaufwirkung gegen TRZAS in %” value ([2]; 5 g/ha) was 10%, the “Nachauflaufwirkung gegen TRZAS in %” value ([2]; 20 g/ha) was 10% and the “Nachauflaufwirkung gegen ABUTH” value ([3]; 5 g/ha) was 100%. The “Nachauflaufwirkung gegen ABUTH” value ([3]; 20 g/ha) was 100%, the “Nachauflaufwirkung gegen ABUTH” value ([3]; 80 g/ha) was 100% and the “Nachauflaufwirkung gegen VIOTR in %” value ([4]; 5 g/ha) was 100%. The “Nachauflaufwirkung gegen VIOTR in %” value ([4]; 20 g/ha) was 100%, the “Nachauflaufwirkung gegen VIOTR in %” value ([4]; 80 g/ha) was 100% and the “Nachauflaufwirkung gegen AMARE” value ([6]; 5 g/ha) was 100%. The “Nachauflaufwirkung gegen AMARE” value ([6]; 20 g/ha) was 100%, the “Nachauflaufwirkung gegen AMARE” value ([6]; 80 g/ha) was 100% and the “Nachauflaufwirkung gegen VERPE in %” value ([7]; 5 g/ha) was 100%. For the same compound, the “Nachauflaufwirkung gegen VERPE in %” value ([7]; 20 g/ha) was 100%, the “Nachauflaufwirkung gegen VERPE in %” value ([7]; 80 g/ha) was 100% and the “Nachauflaufwirkung gegen POLCO in %” value ([8]; 5 g/ha) was 100%. The “Nachauflaufwirkung gegen POLCO in %” value ([8]; 20 g/ha) was 100%, the “Nachauflaufwirkung gegen POLCO in %” value ([8]; 80 g/ha) was 100% and the “Nachauflaufwirkung gegen ALOMY” value ([9]; 20 g/ha) was 80%. The “Nachauflaufwirkung gegen ALOMY” value ([9]; 80 g/ha) was 100%, the “Nachauflaufwirkung gegen PHBPU in %” value ([11]; 5 g/ha) was 100% and the “Nachauflaufwirkung gegen PHBPU in %” value ([11]; 20 g/ha) was 100%. For the same compound, the “Nachauflaufwirkung gegen PHBPU in %” value ([11]; 80 g/ha) was 100%, the “Nachauflaufwirkung gegen DIGSA” value ([12]; 5 g/ha) was 100% and the “Nachauflaufwirkung gegen DIGSA” value ([12]; 20 g/ha) was 100%. The “Nachauflaufwirkung gegen DIGSA” value ([12]; 80 g/ha) was 100%, the “Nachauflaufwirkung gegen LOLRI” value [13] was 90% and the “Nachauflaufwirkung gegen MATIN” value ([14]; 5 g/ha) was 100%. The “Nachauflaufwirkung gegen MATIN” value ([14]; 20 g/ha) was 100% and the “Nachauflaufwirkung gegen MATIN in %” value [14] was 100%.
